Earlier results, collected in patent US8354121B2, “Tape preparation” (Dainippon Sumitomo Pharma Co., Ltd., priority 2006, dated 2013).

What was measured:
[1] = test system: serotonin 5-HT2 receptor; details: compared with haloperidol
[2] = target: dopamine D2 receptor (Homo sapiens, UniProt P14416); details: compared with haloperidol
dopamine D2 receptor, sequence (P14416 whole entry, species assumed): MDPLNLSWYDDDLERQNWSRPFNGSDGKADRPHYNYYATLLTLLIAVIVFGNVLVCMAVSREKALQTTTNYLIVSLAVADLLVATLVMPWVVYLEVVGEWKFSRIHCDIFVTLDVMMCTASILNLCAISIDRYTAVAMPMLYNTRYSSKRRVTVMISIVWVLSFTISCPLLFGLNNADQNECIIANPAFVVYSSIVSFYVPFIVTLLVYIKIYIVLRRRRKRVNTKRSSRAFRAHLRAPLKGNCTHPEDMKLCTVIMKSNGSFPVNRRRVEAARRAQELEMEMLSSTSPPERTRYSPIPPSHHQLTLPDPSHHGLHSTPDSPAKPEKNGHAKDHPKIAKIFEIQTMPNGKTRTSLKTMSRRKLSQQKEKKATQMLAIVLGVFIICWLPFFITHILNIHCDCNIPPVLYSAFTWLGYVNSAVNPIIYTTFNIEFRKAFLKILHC

CCN1CCN(c2cc(-c3ccc(F)cc3)c3c(n2)CCCCCC3)CC1 [Compound A, 2-(4-ethyl-1-piperazinyl)-4-(4-fluorophenyl)-5,6,7,8,9,10-hexahydrocycloocta[b]pyridine]
affinity for serotonin 5-HT2 receptor [1]: higher affinity
affinity for dopamine D2 receptor [2]: higher affinity
